Data published in the supplement of paper PMC10307832.

Key:
Experiment in all cases: relative viability (nuclei count vs DMSO), 5 days (fraction); higher = more cells survive
[1] = compound: CCN(CC)CCNC(=O)c1c(C)[nH]c(/C=C2\C(=O)Nc3ccc(F)cc32)c1C [Sunitinib] + COc1cc2c(Oc3ccc(NC(=O)C4(C(=O)Nc5ccc(F)cc5)CC4)cc3F)ccnc2cc1OCCCN1CCOCC1 [Foretinib] (partner 0.25 µM)
How it was run: (§1)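 One day after seeding in 1536-well plates, lung cancer cell lines were dosed by pin tool. Dosing was either single-drug or a fixed anchor-drug dose plus five library-drug doses (not always all listed) in √10 steps. After 5 days, nuclei were stained in one fix-and-stain step and counted on 4× images, and relative viability is the nuclei count of treated wells over that of vehicle wells, given as the median of duplicate plates.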

[2] = compound: CCN(CC)CCNC(=O)c1c(C)[nH]c(/C=C2\C(=O)Nc3ccc(F)cc32)c1C [Sunitinib] + NC(=O)Nc1cc(-c2cccc(F)c2)sc1C(=O)N[C@H]1CCCNC1 [AZD7762] (partner 0.2 µM)
How it was run: as §1

[3] = compound: CCN(CC)CCNC(=O)c1c(C)[nH]c(/C=C2\C(=O)Nc3ccc(F)cc32)c1C [Sunitinib] + O=C(CCCCCCC(=O)Nc1ccccc1)NO [Vorinostat] (partner 1 µM)
How it was run: as §1

[4] = compound: CCN(CC)CCNC(=O)c1c(C)[nH]c(/C=C2\C(=O)Nc3ccc(F)cc32)c1C [Sunitinib] + CS(=O)(=O)N1CCN(Cc2cc3nc(-c4cccc5[nH]ncc45)nc(N4CCOCC4)c3s2)CC1 [Pictilisib] (partner 1 µM)
How it was run: as §1

| Cell Line | relative viability ([1]; first compound 0.06325 µM) | relative viability ([1]; first compound 0.2 µM) | relative viability ([1]; first compound 0.6325 µM) | relative viability ([1]; first compound 2 µM) | relative viability ([2]; first compound 0.02 µM) | relative viability ([2]; first compound 0.06325 µM) | relative viability ([2]; first compound 0.2 µM) | relative viability ([2]; first compound 0.6325 µM) | relative viability ([2]; first compound 2 µM) | relative viability ([3]; first compound 0.02 µM) | relative viability ([3]; first compound 0.06325 µM) | relative viability ([3]; first compound 0.2 µM) | relative viability ([3]; first compound 0.6325 µM) | relative viability ([3]; first compound 2 µM) | relative viability ([4]; first compound 0.02 µM) | relative viability ([4]; first compound 0.06325 µM) | relative viability ([4]; first compound 0.2 µM) | relative viability ([4]; first compound 0.6325 µM) | relative viability ([4]; first compound 2 µM) | relative viability ([1]; first compound 0.02 µM) |
| --- | --- | --- | --- | --- | --- | --- | --- | --- | --- | --- | --- | --- | --- | --- | --- | --- | --- | --- | --- | --- |
| PC-3 [JPC-3] | 1.05 | 1.12 | 1.02 | 1.01 | 0.844 | 0.79 | 0.845 | 0.827 | 0.865 | 0.919 | 0.805 | 0.858 | 0.904 | 0.928 | 0.819 | 0.768 | 0.841 | 0.685 | 0.694 | – |
| PC-14 | 0.939 | 1.08 | 1 | 0.874 | 0.374 | 0.442 | 0.387 | 0.319 | 0.348 | 0.689 | 0.74 | 0.853 | 0.834 | 0.665 | 0.698 | 0.723 | 0.957 | 0.706 | 0.553 | 0.942 |
| 201T | 1.1 | 1.22 | 1.17 | 1.01 | 0.544 | 0.705 | 0.688 | 0.664 | 0.588 | 0.932 | 1.05 | 1.02 | 0.954 | 0.965 | 0.697 | 0.708 | 0.738 | 0.675 | 0.738 | 1.01 |
| NCI-H441 | 0.953 | – | 1.01 | 1.04 | – | 1.25 | 1.36 | 1.24 | 1.17 | 0.67 | 0.833 | – | 0.984 | 0.85 | 0.431 | 0.546 | 0.48 | 0.476 | 0.428 | 0.771 |
| NCI-H1355 | 0.802 | – | – | 0.68 | 0.764 | 0.845 | 0.859 | 0.767 | 0.689 | 0.638 | 0.75 | 0.793 | 0.751 | 0.678 | 0.431 | 0.448 | 0.477 | 0.399 | 0.447 | 0.957 |
| LK-2 | 1.56 | 1.72 | 1.42 | 1.24 | 0.35 | 0.571 | 0.352 | 0.414 | 0.443 | 0.259 | 0.391 | 0.311 | 0.253 | 0.413 | 0.505 | 0.543 | 0.558 | 0.573 | 0.465 | 1.1 |
| NCI-H2170 | 1.01 | 1.05 | 1.01 | 0.843 | 0.797 | 0.876 | 0.955 | 0.87 | 0.772 | 0.78 | 0.826 | 0.927 | 0.842 | 0.709 | 0.307 | 0.311 | 0.311 | 0.303 | 0.236 | 0.987 |
| HCC-827 | 0.958 | 1.04 | 1.03 | 1.07 | 0.249 | 0.191 | 0.21 | 0.174 | 0.207 | 0.843 | 0.861 | 0.668 | 0.875 | 0.714 | 1.01 | 1.09 | 1.11 | 1.11 | 1.13 | 1.05 |
| NCI-H460 | 1.08 | 1.03 | 1.05 | 1.06 | 0.653 | 0.592 | 0.615 | 0.659 | 0.568 | 0.667 | 0.848 | 1.01 | 0.91 | 0.836 | 0.323 | 0.19 | 0.441 | 0.366 | 0.304 | 0.879 |
| NCI-H1915 | 1.11 | 1.14 | 1.13 | 1.15 | 0.678 | 0.741 | 0.601 | 0.749 | 0.75 | 0.483 | 0.538 | 0.562 | 0.5 | 0.505 | 0.958 | 1.01 | 1.02 | 0.977 | 1.02 | 1.07 |
| EPLC-272H | 0.65 | – | 0.771 | 0.637 | 0.26 | 0.298 | 0.301 | 0.175 | 0.229 | 0.512 | 0.479 | 0.424 | 0.397 | 0.555 | 0.313 | 0.336 | 0.297 | 0.338 | 0.334 | 0.702 |
| NCI-H1666 | 1 | 1.05 | 1.04 | 1.01 | 0.782 | 1.02 | 0.907 | 0.895 | 0.886 | 1.12 | 1.06 | 1.11 | 0.996 | – | 0.459 | 0.517 | 0.603 | 0.55 | 0.429 | 0.912 |
| NCI-H838 | 1 | 1.14 | 1.08 | 0.826 | 0.956 | 0.907 | 1.01 | 0.993 | 0.884 | 0.715 | 0.803 | 0.758 | 0.725 | 0.65 | 0.409 | 0.499 | 0.506 | 0.487 | 0.361 | 1.04 |
| LOU-NH91 | 0.974 | 1.04 | 0.998 | 0.878 | – | 0.688 | 0.879 | 0.831 | 0.756 | 0.928 | 0.96 | 0.997 | 1 | 0.884 | 0.525 | 0.537 | 0.533 | 0.556 | 0.53 | 0.939 |
| HARA | 1.13 | 0.97 | 0.991 | 0.868 | 0.355 | 0.337 | 0.582 | 0.29 | 0.301 | 0.525 | 0.518 | 0.687 | 0.441 | 0.553 | 0.397 | 0.374 | 0.606 | 0.31 | 0.323 | 0.857 |
| LCLC-103H | 1.01 | 0.922 | 0.873 | 0.791 | 0.808 | 0.786 | 0.89 | 0.925 | 0.851 | 0.778 | 0.918 | 0.868 | 0.827 | 0.867 | 0.558 | 0.649 | 0.643 | 0.614 | 0.536 | 0.702 |
